Oligonucleotides are written 5' to 3', each unit as a sugar letter and its base; * is a phosphorothioate linkage, no mark a phosphodiester; rarer units and linkages stand in square brackets, end groups in braces. Plain capitals give the bases only. e = 2'-O-(2-methoxyethyl) (MOE); [5mC] = 5-methylcytosine

Data set [1] concerns H3K9Ac along the SMN2 gene. Nature of the data set: ChIP-qPCR of H3K9Ac distribution along the SMN2 gene in HEK293T cells. The note with it: 10 mM VPA 12 hr or ASO1 transfection. It is filed as cell-based, human. As to the method:
Four independent immunoprecipitation replicates were conducted per experiment. Data are represented as mean ± S.D. (n = 4, *p < 0.05, two-tailed Student's t test). […] Top: control Western blot for efficient expression of the c-Myc-SMN fusion protein encoded by plasmid […], cat.# 71687) using anti-tubulin (tub.) as loading control. Bottom: […] Distribution of these histone marks was assessed by ChIP-qPCR, with amplicons mapping near the numbered exons (E) and introns (i). Three independent immunoprecipitation replicates were conducted per experiment. Data are represented as mean ± S.D. (n = 5; in all cases p was much higher than 0.05, two-tailed Student's t test). […] Top: control Western blot for efficient expression of the […] fusion protein encoded by plasmid pEGFP-RNASEH1 (Addgene, cat.# 108699), using anti-actin (act.) as loading control. Bottom: […] Top: control Western blot for efficient AGO1 knockdown using anti-tubulin (tub.) as loading control. Bottom: […] RT-PCR conditions for FIGS. 10A, 10C and 10D were as in FIGS. 1A-1G . Approximately 2×10^6 HEK293T cells per sample were treated for 10 min in 1% (v/v) formaldehyde at room temperature to crosslink protein-DNA complexes. Crosslinking was stopped with glycine at a final concentration of 125 mM. […]
Background: Quantitative PCR measures a nucleic acid by following its amplification.

Data set [2] relates to RNAPII (total, P-Ser5, P-Ser2) along the SMN2 gene. The data set can be described thus: ChIP-qPCR of RNAPII distribution along the SMN2 gene in HEK293T cells. Format: cell-based, human.
For data set [3], the system named is H3K9me2 along the SMN2 gene. The data set can be described thus: ChIP-qPCR of H3K9me2 distribution along the SMN2 gene in HEK293T cells. It is filed as cell-based, human.
The test system of data set [4] is H3K9me2 on merged SMN1 and SMN2 genes. Nature of the data set: Genome-wide ChIP-seq analysis of H3K9me2 mark deposition in HEK293T cells. It is filed as cell-based, human.
Data set [5] has as its system SMA mice. Nature of the data set: Grip-strength test of P7 SMA mice. It is filed as in vivo, mouse. The conditions noted are these: untreated mutants ~35°.
For data set [6], the system named is endogenous SMN2 E7 alternative splicing. The data set can be described thus: SMN2 E7 alternative splicing by radioactive RT-PCR in HEK293T cells. Format: cell-based, human. The note with it: HEK293T. Here is the method:
Alternative splicing was analyzed by radioactive RT-PCR followed by native polyacrylamide gel electrophoresis and autoradiography. Bars display means ± SD of percentage of the radioactivity in the FL band over the sum of radioactivity measurements in the FL and ΔE7 bands of at least three independent transfection experiments. A two-tailed Student’s t test was used to determine the significance between events. (FIG. 1A) HEK293T cells were co-transfected with the SMN2 minigene and expression vectors for WT^res and hC4 Pol II, followed by addition of α-amanitin. (FIG. 1B) Effect of camptothecin (CPT) on SMN2 E7 alternative splicing. HEK293T cells were incubated for at least 6 hours with 3 µM CPT. Combined effects on endogenous SMN2 E7 alternative splicing of transfection with 25 nM ASO1 and treatment with 3 µM TSA for 24 hr (FIG. 1C), 10 mM VPA for 24 hr (FIG. 1D), or 25 µM 5-AZA for 48 hr (FIG. 1E). Combined effects on HEK293T endogenous SMN2 E7 alternative splicing of transfection with 25 nM each of si-hnRNPA1 and si-hnRNPA2, and treatment with 3 µM TSA for 24 hr (FIG. 1F) or 10 mM VPA for 24 hr (FIG. 1G). […]
HEK293T, HeLa, and SMA type I homozygous and carrier fibroblasts 3813 and 3814 (Coriell Cell Repositories, Camden, New Jersey, United States) were grown in Dulbecco’s modified Eagle’s medium (DMEM) containing 4.5 g of glucose and 10% fetal bovine serum (Gibco) at 37° C. Cells were plated at a density of 2×10^5 cells per well in 12-well plates 24 hr before transfection. siRNA (25 nM), plasmid (500 ng), or ASO (25 nM) transfections were performed 24 hr after cells were plated, using 3 µl of Lipofectamine 2000 (Thermo Fisher Scientific) per well in 12-well plates. 24-48 h later, cells were treated with Trichostatin A (Sigma, T8552), Valproic Acid (Sigma, P4543), 5-Azacytidine (Sigma, A2385) or vehicle for the indicated time, and harvested for downstream procedures. […]

Data set [7] relates to SMA mice. Nature of the data set: Righting reflex test of P7 SMA mice. The conditions noted are these: for righting reflex delay (in words): untreated mutant ~45 seconds. Format: in vivo, mouse.

As for “ASO1: 5′-ATTCACTTTCATAATGCTGG-3′ 2′-O-methoxyethyl-modified oligonucleotide with phosphorothioate backbone and all 5-methyl cytosines; nusinersen variant with 2-nucleotide extension (antisense eA*eT*eT*e[5mC]*eA*e[5mC]*eT*eT*eT*e[5mC]*eA*eT*eA*eA*eT*eG*e[5mC]*eT*eG*eG)”, the “H3K9 acetylation along the SMN2 gene” value in data set [1] was “not affected”. Moreover, in data set [2] (ASO transfection vs scramble), the “P-Ser2 RNAPII density” value is “greatly increased”, the “P-Ser5 RNAPII density” value was “greatly increased” and the “total RNAPII density” value was “greatly increased”. Besides, in data set [3] (HEK293T transfected with ASO1 vs scramble oligo), the “H3K9 dimethylation, peak increase at the promoter and the alternative E7 areas” value is 8 fold. For the same molecule, the “share of control-set genes with lower ASO1/control fold enrichment than SMN1/2” value in data set [4] (11,738 protein-coding genes as reference) was ~ 91 % of the genes in the control set. Moreover, in data set [4] (HEK293T, merged SMN1 and SMN2 genes), the “enrichment of H3K9me2 ChIP-seq reads compared with the control” value was 44%. In addition, in the data set on SMA mice [5], the “grip strength, inclination angle at which pups fall” value is ~ 45 °. Besides, in data set [6] (25 nM ASO, 3 µM TSA 24 hr, 25 µM 5-AZA 48 hr, 3 µM CPT), the “effect on SMN2 E7 inclusion, agent alone” value was “promoted inclusion”. Besides, in the data set on SMA mice [7], the “righting reflex, time to right” value was ~ 10 seconds and the “righting reflex delay (in words)” value is “greatly reduced”.
Turning to `CCCC(CCC)C(=O)O` [VPA, valproic acid], in data set [1], the “H3K9 acetylation along the SMN2 gene” value is “promoted intragenic H3K9 acetylation”. Besides, the “RNAPII peak (total, P-Ser5, P-Ser2) in ASO1-transfected cells additionally treated with VPA” value in data set [2] (ASO1 plus 10 mM VPA) was “abolished”. For the same molecule, the “roadblocks to elongation in ASO2-transfected cells treated with VPA” value in data set [2] (ASO2 plus 10 mM VPA) is on record as “abolished”. The “effect of VPA on ASO1-promoted H3K9me2” value in data set [3] (HEK293T transfected with ASO1 and treated with 10 mM VPA) was “completely abolished the ASO1 effect”. For the same molecule, in data set [3] (HEK293T, ASO transfection or 10 mM VPA), the “H3K9me2 marks along the SMN2 gene” value is listed as “reduced the H3K9me2 marks relative to the control”. Besides, in data set [4] (ASO1+VPA/control+VPA, 11,738 protein-coding genes), the “reverting effect of VPA on SMN1/2 compared with control genes” value is “higher than for the majority of the control genes”. The “decrease of H3K9me2 methylation mark” value in data set [4] (HEK293T treated with VPA, merged SMN1 and SMN2 genes) worked out at 67%. Further, in the data set with SMA mice [5], the “grip strength, inclination angle at which pups fall” value is ~ 30 °. Besides, in data set [6] (25 nM each si-hnRNPA1 and si-hnRNPA2, no ASO1, 3 µM TSA or 10 mM VPA 24 hr), the “effect of hnRNPA1/A2 depletion in promoting E7 inclusion upon HDAC inhibitor treatment” value is “stronger”. For the same molecule, the “righting reflex delay (in words)” value with SMA mice [7] is reported as “not significantly changed”.

Source of the values: US20230302036A1, “COMPOSITIONS FOR TREATMENT OF SPINAL MUSCULAR ATROPHY” (priority 2020, published 2023).
